We go through 7 compounds from publication PMC13206458, “A Synergistic Inhibitor Development Strategy Against Human UDP‐Galactose‐4‐Epimerase” (Angewandte Chemie (International Ed. in English), 2026).

In data set [1] the target is T1, GalE (Homo sapiens, UniProt Q14376).
T1 sequence (Q14376 1-348): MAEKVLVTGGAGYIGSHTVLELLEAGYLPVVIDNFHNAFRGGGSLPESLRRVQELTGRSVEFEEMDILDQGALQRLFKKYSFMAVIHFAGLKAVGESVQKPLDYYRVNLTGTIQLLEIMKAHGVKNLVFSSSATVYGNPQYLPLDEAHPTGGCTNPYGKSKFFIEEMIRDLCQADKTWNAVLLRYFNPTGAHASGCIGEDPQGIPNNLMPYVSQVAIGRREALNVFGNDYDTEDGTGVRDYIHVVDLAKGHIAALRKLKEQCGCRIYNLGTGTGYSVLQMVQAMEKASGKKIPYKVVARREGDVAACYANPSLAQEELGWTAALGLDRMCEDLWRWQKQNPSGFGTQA
The experiment in a line: Differential scanning fluorimetry (DSF) thermal shift assay. Details: His tag (3C-cleavable; concluded from HisTrap purification and 3C cleavage) (cleaved yes); made in house; host or cells: Sf21 insect cells (baculovirus, described before) or E. coli BL21 (DE3). Particulars: relative to DMSO controls, three technical replicates. Type of data set: binding.

In data set [2] the target is T1, GalE. The experiment in a line: GalE epimerisation assay (HPAEC, UDP-Gal to UDP-Glc), non-covalent concentration-response.
Protocol: The GalE enzyme assay uses high‐performance anion exchange chromatography (HPAEC) to determine the conversion of UDP‐Gal to UDP‐Glc (Figure S3A) [28].
For in vitro epimerisation, 20 µL reactions were performed in 25 mM HEPES, pH 7.5,
50 mM NaCl, 200 µM NAD with 100 µM UDP-Gal and 5 nM GalE. Reactions were run
minute. Samples were cooled to 4 °C and analysed by high performance liquid
chromatography (HPLC) using an ArcPremier Waters instrument with a Dionex
CarboPac PA1 IC (2mm x 150 mM) column (Waters, Wilmslow, UK). Injection volume
was 5 µL. Eluent A was 1 M NaOAc/1 mM NaOH (Sigma-Aldrich, St. Louis, USA).
The % conversion for each assay was determined by
the relative difference in peak area between UDP-Gal and UDP-Glc peaks. Kinetics
factors (KM and kcat) were determined by non-linear curve fitting using Graphpad Prism
9.0 GraphPad Software. Calculations used a modified version of the Michaelis-Menten
𝜈(𝐺𝐴𝐿𝐸) = [𝐺𝐴𝐿𝐸]! ∙ 𝑘#$! ∙[𝑈𝐷𝑃 − 𝐺𝑎𝑙]
Equation 1: Michaelis-Menten Equation as used in GraphPad.
Where 𝜈 is the initial rate in µM/s.
𝐾%is the Michaelis-Menten constant in µM.
[𝐺𝐴𝐿𝐸]! is the concentration of GalE in µM in the assay.
𝑘#$!is the turnover number in s-1.
[𝑈𝐷𝑃 − 𝐺𝑎𝑙] is the concentration of UDP-Gal at the start of the reaction in µM.
Non-Covalent Compound Concentration-Response Assay […]
only-controls and activity assessed by epimerisation assay.
In data set [3] the target is T1, GalE. The data set can be described thus: Isothermal titration calorimetry (ITC). Type of data set: binding. The arrangement: His tag (3C-cleavable; concluded from HisTrap purification and 3C cleavage) (cleaved yes); made in house; host or cells: Sf21 insect cells (baculovirus, described before) or E. coli BL21 (DE3). The conditions noted are these: 25 °C, one experiment, approximate/estimated.

In data set [4] the target is T1, GalE. The data set can be described thus: Covalent fragment site identification by tryptic digest LCMS/MS. The arrangement: His tag (3C-cleavable; concluded from HisTrap purification and 3C cleavage) (cleaved yes); made in house; host or cells: Sf21 insect cells (baculovirus, described before) or E. coli BL21 (DE3). The text has this:
• Options: Optimisation of hydrogens, keep tight waters (those that make 3 or more H-bonds), optimise His, Pro, Asn, Gln, and Cys side chains.
• Options: Optimisation of formal and partial charges, protonation states (at pH 7.5) and hydrogen placement.
• Identification of the binding pocket and building of receptor maps around X0213 using the ICM virtual screening function.
• Docking of libraries from SDFiles using the ICM virtual ligand screening function, selecting a thoroughness score of 3.
• All other docking parameters kept as default, and no additional triaging was […]
WBC01 and WBC02 Covalent Fragment Site Identification Mass Spectrometry Recombinant human GalE (10 µM GalE, 25 mM HEPES, 50 mM NaCl) was first incubated with either WBC01 or WBC02 (25, 50, or 100 µM) or matched 1% (V/V) DMSO control for 24 hours at room temperature. Samples were separated by SDS-PAGE gel, stained with colloidal Coomassie InstantBlue (Abcam, Cambridge, UK), bands corresponding to GalE were excised, reduced in 10 mM DTT (in water) for 20 minutes at 55 °C, alkylated with 55 mM iodoacetamide (IAA) in the same buffer at room temperature for 20 minutes, and digested overnight using 100 ng trypsin in 10 mM ammonium bicarbonate at 37 °C (Promega, Wisconsin, USA) before being acidified with to 0.1% Trifluoracetic acid (TFA).
On an Ultimate 3000 nanoRSLC HPLC (Thermo Scientific, Massachusetts, USA), 1-10 µL of protein sample was loaded on a 20 mm x 75 µm Pepmap C18 trap column (Thermo Scientific) prior to elution via a 50 cm x 75 µm EasySpray C18 column into a Lumos Tribrid Orbitrap mass spectrometer (Thermo Scientific). A 45 minute gradient of 6% - 40% B was used followed by washing and re-equilibration (A= 2% ACN, 5% DMSO, 0.1% formic acid; B= 80% ACN, 5% DMSO, 0.1% formic acid). […]
bottom plate from a 10 mM source in DMSO. […] The plate was sealed, centrifuged (1 min, 1000 rpm), incubated at 20 °C for 6 h, and 15 µL aliquots were subsequently removed and analyzed by intact protein LC-MS to confirm modification. […]

The target of data set [5] is T1, GalE. The data set can be described thus: Intact-protein LCMS covalent modification. Type of data set: binding. The arrangement: His tag (3C-cleavable; concluded from HisTrap purification and 3C cleavage) (cleaved yes); made in house; host or cells: Sf21 insect cells (baculovirus, described before) or E. coli BL21 (DE3). The conditions noted are these: 0.5 µM GalE, 100 µM compound, 24 h incubation, one experiment. The text has this: To advance GalE inhibitors towards a suitable probe, we next evaluated available crystal structures to identify nearby nucleophilic residues for developing covalent inhibitors (Figure 3A). Three residues close to the ligand binding pocket were identified as potential modification points for commonly employed covalent warheads, Tyr211, Tyr230 and Lys295 (Figure 3B). We screened a library of 347 sulfonyl fluoride‐containing fragments, reported to target Tyr/Lys residues (Figure 3C). Screening was performed by incubating fragments at 100 µM with 0.5 µM purified GalE for 24 h. Protein modification was then determined by intact‐protein LCMS. In this experiment, we deliberately omitted the addition of the NAD cofactor to keep the experimental conditions simple and potentially allow for the sampling of a larger conformational ensemble in GalE. […]
Buffer AGX1_B over 17 min.
A 5 µL sample was injected […]
The flow rate and temperature were set to 0.5 mL/min and 70 °C, respectively. […] The obtained spectra were analysed and deconvoluted with the MassHunter BioConfirm software (Agilent Technologies, Cheshire, UK). […] The spectra were then exported and analysed using software developed internally at GSK to determine relative % labelling. […]
controls were included. Samples were analysed by intact-LCMS as described above and the relative % protein modification determined. […]

The target in data set [6] is T1, GalE. The data set can be described thus: Covalent fragment kinetics assay by intact-protein LCMS. Details: His tag (3C-cleavable; concluded from HisTrap purification and 3C cleavage) (cleaved yes); made in house; host or cells: Sf21 insect cells (baculovirus, described before) or E. coli BL21 (DE3). Type of data set: binding.
For data set [7], the target named is T2, AGX1 (Homo sapiens, UniProt Q16222). The data set can be described thus: WBC11 alkyne protein labelling assay (CuAAC, streptavidin blot), AGX1 control. Type of data set: binding. Details: made in house. The conditions noted are these: 10 µM WBC11. The procedure: dependent analysis (DDA).
T2 sequence (Q16222 1-505 isoform Q16222-2, species assumed): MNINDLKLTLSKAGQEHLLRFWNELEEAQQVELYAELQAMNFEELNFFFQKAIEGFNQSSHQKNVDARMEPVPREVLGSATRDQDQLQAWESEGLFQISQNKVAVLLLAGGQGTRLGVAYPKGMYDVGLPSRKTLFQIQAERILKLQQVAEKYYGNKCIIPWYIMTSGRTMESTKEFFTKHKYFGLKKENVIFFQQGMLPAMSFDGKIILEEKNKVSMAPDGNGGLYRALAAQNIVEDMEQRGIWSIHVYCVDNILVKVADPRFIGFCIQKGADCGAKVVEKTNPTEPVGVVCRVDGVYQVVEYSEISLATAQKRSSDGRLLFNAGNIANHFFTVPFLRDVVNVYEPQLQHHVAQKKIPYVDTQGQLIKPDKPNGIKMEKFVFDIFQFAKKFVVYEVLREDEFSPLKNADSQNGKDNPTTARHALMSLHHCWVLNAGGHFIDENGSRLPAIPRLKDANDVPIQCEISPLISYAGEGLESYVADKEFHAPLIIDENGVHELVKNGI
methionine were allowed. […] (293.30
WBC11 Alkyne protein labelling assay
minutes at room temperature.
Membrane was blocked for 1 hour with
Each total protein signal value was
normalisation factor for each band.
normalised densitometry score.

Data set [8] has as its target T1, GalE. The experiment in a line: WBC11 alkyne protein labelling assay (CuAAC, streptavidin blot), GalE. Particulars: 95°C for 5 min in sodium dodecyl sulphate loading buffer.
Protocol: We then used WBC11 to trace covalent GalE modification (Figure 5D). […] The traceable nature of WBC11 allowed us to assess the stability of the sulfonyl ester bond to Tyr211.
Recombinant samples of either GalE or AGX1 (0.5 µg enzyme in 25 mM HEPES pH
7.5, 50 mM NaCl, 200 µM NAD) were incubated with either 10 µM WBC11 alkyne, 100
final conditions) for 1 hour at room temperature in 27 µL volume. Samples then
underwent copper-catalyzed azide-alkyne cycloaddition (CuAAC) with 100 µM biotin
picolyl azide (Sigma-Aldrich), 600 µM copper(II) sulfate, 1.2 mM 2-(4-((Bis((1-(tert-
butyl)-1H-1,2,3-triazol-4-yl)methyl)amino)methyl)-1H-1,2,3-triazol-1-yl)acetic acid
(BTTAA), 5 mM sodium ascorbate, and 5 mM amminoguanidine hydrochloride for 30
concentration. Stability of the covalent bond was assessed by incubating the GalE-
WBC11 conjugate for 5 minutes at 95 °C. Samples were run on an 4%-20% SDS
PAGE gel (CriterionTM TGXTM Precast Midi Protein Gel, Bio-Rad) for 70 mins at 160V.
Western blot transfer to 0.2 µm nitrocellulose membrane (Bio-Rad) was done with the
Transblot-Blot Turbo Transfer System (Bio-Rad) at the HIGH MW protocol (10 mins,
2.5 A, up to 25 V). For total protein staining, membrane was incubated with Revert 700
Total Protein stain (LI-COR) for 5 mins. Membrane was blocked for 1 hour with […]
analysed on Image Studio (version 6.0, LI-COR). […]
Data set [9] is described as follows: Hepatocyte stability assay. Type of data set: in vitro ADME. The conditions noted are these: hepatocytes, preliminary DMPK.
Data set [10] addresses T3, MGAT2 (Homo sapiens, UniProt Q10469).
T3 sequence (Q10469 1-447): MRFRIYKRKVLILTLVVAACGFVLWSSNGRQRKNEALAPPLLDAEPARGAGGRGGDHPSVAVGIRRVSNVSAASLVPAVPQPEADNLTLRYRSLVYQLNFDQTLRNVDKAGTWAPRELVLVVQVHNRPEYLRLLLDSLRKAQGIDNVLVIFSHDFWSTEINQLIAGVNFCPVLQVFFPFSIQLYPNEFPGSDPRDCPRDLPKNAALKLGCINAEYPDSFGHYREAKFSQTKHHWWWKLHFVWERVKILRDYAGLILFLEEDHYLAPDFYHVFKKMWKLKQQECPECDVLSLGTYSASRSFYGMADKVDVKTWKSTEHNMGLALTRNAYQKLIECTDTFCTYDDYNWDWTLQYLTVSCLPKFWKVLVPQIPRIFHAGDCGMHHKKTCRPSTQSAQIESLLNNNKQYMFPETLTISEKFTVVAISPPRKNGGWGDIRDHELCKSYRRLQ
The experiment in a line: MGAT2 inhibition assay. Particulars: 400 µM WBX09, multiple enzyme concentrations.
Protocol: MGAT2 was recombinantly expressed before.[13] Reaction mixtures were prepared by
an equivalent volume of DMSO, in a total of 10 μL reaction buffer (50 mM Tris pH 6.8,
with 5 mM MnCl2, 0.1% BSA and 0.1% Triton-X100). Reactions were carried out at
centrifuged at for 30 min at 14,000 g at 4°C to precipitate proteins. Of each sample, 9
µL of the supernatant was injected onto an Acquity H-Class PLUS QDa UPLC-MS
(Waters) equipped with an ACQUITY UPLC® Glycan BEH Amide column (130 Å, 1.7
μm, 2.1 x 100 mm, Waters). Samples were run at flow rate of 0.35 mL/min using Buffer
MGAT2_A (10 mM Ammonium formate at pH 4.5); Buffer MGAT2_B (10 mM
The turnover of the procainamide acceptor glycan into the
of the acceptor substrate and the product glycan.

For data set [11], the target named is T2, AGX1. The data set can be described thus: AGX1 inhibition assay. Particulars: 400 µM WBX09, multiple enzyme concentrations.
Protocol: Recombinant AGX1 was expressed before.[14] Commercial N-Acetyl-D-glucosamine 1-
phosphate disodium salt (GlcNAc-1-P, Sigma Aldrich) was used as a substrate to
absorbance-based assay. Reactions were carried out using 0.5 mM GlcNAc-1-P, 1
either 5 nM, 10 nM or 20 nM AGX1 in a total volume of 20 µL reaction buffer (5 mM
Reactions were stopped by the addit ion of an equal volume of ice-cold acetonitrile,
followed by centrifugation at 16200 g, 4 °C for 30 min. The supernatant of each
reaction was analysed by injecting 9 µL into Acquity H -Class PLUS QDa UPLC -MS
(Waters, Milford, USA) equipped with an ACQUITY UPLC® Glycan BEH Amide
column (130 Å, 1.7 μ m, 2.1 x 100 mm, Waters). Samples were run a t a flow rate of
0.35 mL/min, column temperature at 50 °C and sample manager (sample tray) at 10
°C using Buffer AGX1_ A (10 mM ammonium formate at pH 4.5); Buffer AGX1_ B (10
Product formation was monitored by absorption at 260
nm and further confirmed by mass detection in negative mode. Turnover (%) was
determined by integration of the product’s UV peaks and plotting it against a standard
curve of 0-2.5 mM UDP-GlcNAc (Sigma- Aldrich) produced by serial dilution in final
Where [12] appears, read: GalE incubated with 100, 50 or 25 µM compound, tryptic digest MS.

Turning to `Cc1cc(NC(=O)NCCC(=O)Nc2ccncc2)no1` [WBX04], the ΔTm in [1] came to 3.1 °C. Further, half-maximal inhibition in [2] (IC50) was put at 115 µM. In addition, the Kd in data set [3] was 9 ± 6 µM.
Consider `O=C(NCc1ccc(Cl)c(Cl)c1)c1cccc(S(=O)(=O)F)c1` [WBC02], for which the residue modified entry in data set [4] (setting [12]) was “Tyr211”.
As to `CCNC(=O)Nc1cc(C)on1` [X0213], the Kd in data set [3] is approximately 468 µM.
In the case of `Cc1cc(NC(=O)NCc2cccc(S(=O)(=O)F)c2)no1` [WBC03], the protein modification % in data set [5] is recorded as more than 95%. The residue modified entry in data set [4] (200-fold excess of compound, tryptic digest LCMS/MS) is recorded as “only Tyr211”. In addition, the kinact/KI in data set [6] stood at 11.7 M⁻¹ s⁻¹.
As for `C#Cc1cc(CNC(=O)Nc2cc(C3CCC3)on2)cc(S(=O)(=O)F)c1` [WBC11], the “biotin tagging of AGX1 control protein” value in data set [7] is reported as “band of lower intensity”. For the same compound, the “intensity of GalE-WBC11 adduct after heating (stability of covalent bond)” value in data set [8] is listed as “did not change”.
`O=S(=O)(F)c1cccc(-c2cc(O)c3ccccc3n2)c1` [WBC01]: the residue modified result in [4] (setting [12]) is recorded as “Tyr211”.
In data set [9], `O=C(CCNC(=O)Nc1cc(C2CCC2)on1)Nc1ccncc1` [WBX09] came in with a half-life of 16.4 min. Moreover, the hepatocyte CLint in data set [9] (read-out: intrinsic clearance) was 42.4 µL/min/1e6 cells. Also, the “effect on MGAT2 activity” value in data set [10] is on record as “No inhibition”. Besides, the “effect on AGX1 activity” value in [11] is listed as “No inhibition”.

A word on the ΔTm: it is the change in melting temperature against a reference sample. By IC50 is commonly meant the concentration that gives 50% inhibition. A higher IC50 goes with weaker potency in that assay. For orientation: Kd means the concentration at which binding is half-saturated. A word on the kinact/KI: it is the second-order rate constant of inactivation. As usually defined, the half-life is how long it takes for the measured level to halve.
